Assay results: patent US20240218023A1, “CYCLIC PEPTIDE-N-ACETYLGALACTOSAMINE (GALNAC) CONJUGATES FOR DRUG DELIVERY TO LIVER CELLS” (MICROBIO (SHANGHAI) CO., LTD., priority 2021, published 2024)
Square brackets hold non-standard residues; d marks the D form. Side chains are listed from the residue outwards. * marks the point of attachment. Gal‑1 = GalNAc linker: 5-(GalNAc-oxy)pentanoic acid (3-acetamido-4,5-diacetoxy-6-(acetoxymethyl)tetrahydropyran-2-yl-oxy)pentanoic acid; Gal‑3 = GalNAc linker: 4-(GalNAc-oxy)butanoic acid (3-acetamido-4,5-diacetoxy-6-(acetoxymethyl)tetrahydropyran-2-yl-oxy)butanoic acid; 5FAM = O=C1OC2(c3ccc(O)cc3Oc3cc(O)ccc32)c2ccc(C(=O)*)cc21; Linker2 = 6-aminohexyl amide linker; GalNAc = N-acetylgalactosamine

B1: 5-FAM-CPMB-0034 (peptide)
peptide: KEKGKG
modifications: head-to-tail cyclic; D-Glu; each Lys side chain carries GalNAc via linker Gal-4; D-Glu side chain carries Linker2 with 5-FAM
B2: 5-FAM-CPMB-0025 (peptide)
peptide: KEKGKG
modifications: head-to-tail cyclic; D-Lys at the three Lys positions and D-Glu; each D-Lys side chain carries GalNAc via linker Gal-5; D-Glu side chain carries Linker2 with 5-FAM
B3: 5-FAM-CPMB-0021 (peptide)
peptide: cyclo([dK]([Gal‑1-GalNAc])[dE]([Linker2-5FAM])[dK]([Gal‑1-GalNAc])G[dK]([Gal‑1-GalNAc])G)
B4: 5-FAM-CPMB-0033 (peptide)
peptide: cyclo(K([Gal‑3-GalNAc])[dE]([Linker2-5FAM])K([Gal‑3-GalNAc])GK([Gal‑3-GalNAc])G)
B5: 5-FAM-CPMB-0031 (peptide)
peptide: cyclo(K([Gal‑1-GalNAc])[dE]([Linker2-5FAM])K([Gal‑1-GalNAc])GK([Gal‑1-GalNAc])G)

How the values were obtained:
[1] = tested on: HepG2 cells; assay: Cellular uptake / binding of FAM-labeled ligands to HepG2 cells (flow cytometry, proportion of FAM positive cells); format: cell-based, human; conditions: for Efficiency (%) of cellular uptake (percentage of ligand-bound HepG2 cells): 24 h
Protocol: The human hepatocellular carcinoma (HepG2) cell line was purchased from Shanghai Zhong Qiao Xin Zhou Biotechnology Co., Ltd. and maintained in minimum essential medium (Gibco, ThermoFisher Scientific, USA) with 10% fetal bovine serum (Gibco, ThermoFisher Scientific, USA), 200 units/mL penicillin plus 200 units/mL streptomycin at 37° C. with 5% CO2.
Cells were seeded in 24-well plates with a density of 1.5×10^5 cells per well and incubated under 37° C., 5% CO2. After 18 h of incubation, media were replaced to MEM with 2% FBS and FAM-labeled ligands were added with final concentrations of 1.6, 8, 40 or 200 nM. After 24 h of incubation, cells were washed twice with 1×PBS and analyzed by LSRFortessa (BD Biosciences, NJ, USA). The binding efficiency was evaluated by the proportion of FAM positive cells.
HepG2 cell was treated by 14 cyclic peptide-tri-GalNAc ligand variants with serial diluted concentration of 1.6, 8, 40 or 200 nM. Commercialized tri-GalNAc used in Givosirna was used as positive control and cyclic peptide w/o tri-GalNAc was negative control. […] Equilibrium dissociation constant (kd) for 5-FAM-CPMB-0013 (ID013), 5-FAM-CPMB-0023 (ID023), 5-FAM-CPMB-0035 (ID035) and commercialized tri-GalNAC were 7.0, 8.6, 5.7 and 18 nM, respectively.

[2] = molecular target: asialoglycoprotein receptor (ASGPR) on HepG2 cells (human) (UniProt P07306); assay: flow cytometry, % FAM-positive HepG2 cells after 24 h with 40 nM ligand
asialoglycoprotein receptor (ASGPR) on HepG2 cells (human), sequence (P07306 whole entry, chain 1 of 2): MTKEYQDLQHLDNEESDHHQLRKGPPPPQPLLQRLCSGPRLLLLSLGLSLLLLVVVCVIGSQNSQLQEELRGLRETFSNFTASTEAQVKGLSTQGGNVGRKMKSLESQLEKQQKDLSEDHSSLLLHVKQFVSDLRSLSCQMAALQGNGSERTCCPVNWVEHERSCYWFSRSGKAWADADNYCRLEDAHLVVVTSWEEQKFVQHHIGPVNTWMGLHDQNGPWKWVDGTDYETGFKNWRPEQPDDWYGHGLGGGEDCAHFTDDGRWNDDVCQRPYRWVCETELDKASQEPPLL
asialoglycoprotein receptor (ASGPR) on HepG2 cells (human), sequence (P07307 whole entry, chain 2 of 2, further chain): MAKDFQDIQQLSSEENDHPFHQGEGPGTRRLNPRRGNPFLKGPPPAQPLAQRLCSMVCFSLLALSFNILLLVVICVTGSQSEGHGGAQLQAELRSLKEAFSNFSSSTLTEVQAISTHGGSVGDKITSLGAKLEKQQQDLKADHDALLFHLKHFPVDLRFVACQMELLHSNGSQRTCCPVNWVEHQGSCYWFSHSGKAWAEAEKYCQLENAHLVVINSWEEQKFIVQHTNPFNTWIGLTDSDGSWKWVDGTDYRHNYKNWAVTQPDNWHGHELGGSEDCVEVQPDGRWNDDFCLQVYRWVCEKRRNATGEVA

[3] = molecular target: asialoglycoprotein receptor (ASGPR) on HepG2 cells (human) (UniProt P07306); assay: flow cytometry, % FAM-positive HepG2 cells after 24 h with 1.6 nM ligand
[4] = molecular target: asialoglycoprotein receptor (ASGPR) on HepG2 cells (human) (UniProt P07306); assay: flow cytometry, % FAM-positive HepG2 cells after 24 h with 200 nM ligand
[5] = molecular target: asialoglycoprotein receptor (ASGPR) on HepG2 cells (human) (UniProt P07306); assay: flow cytometry, % FAM-positive HepG2 cells after 24 h with 8 nM ligand

| Molecule | Efficiency (%) of cellular uptake (percentage of ligand-bound HepG2 cells) ([1]; 1.6 nM ligand, HepG2) [%] | Efficiency (%) of cellular uptake (percentage of ligand-bound HepG2 cells) ([1]; 8 nM ligand, HepG2) [%] | Efficiency (%) of cellular uptake (percentage of ligand-bound HepG2 cells) ([1]; 40 nM ligand, HepG2) [%] | Efficiency (%) of cellular uptake (percentage of ligand-bound HepG2 cells) ([1]; 200 nM ligand, HepG2) [%] | Kd ([1]; HepG2 cells, read-out: Equilibrium dissociation constant (kd)) [nM] | binding ability as compared to others and commercialized tri-GalNAc ([1]; among 14 variants, HepG2) | Efficiency (%) (proportion of FAM positive cells) [2] | Efficiency (%) (proportion of FAM positive cells) [3] | Efficiency (%) (proportion of FAM positive cells) [4] | Efficiency (%) (proportion of FAM positive cells) [5] |
| --- | --- | --- | --- | --- | --- | --- | --- | --- | --- | --- |
| 5-FAM-CPMB-0025: CPS-002 cyclic peptide scaffold, Gal-5 GalNAc linker, 5-FAM label; FIG. 14H (KEKGKG; D-residues; cyclised or stapled) | 1.6 | 30 | 83.1 | 98.2 |  |  |  |  |  |  |
| 5-FAM-CPMB-0021: CPS-002 cyclic peptide scaffold, Gal-1 GalNAc linker, 5-FAM label; FIG. 14F (KEKGKG; D-residues; cyclised or stapled) | 6.8 | 46.1 | 88.7 | 98.8 |  |  |  |  |  |  |
| 5-FAM-CPMB-0313: CPS-031 cyclic peptide scaffold, Gal-3 GalNAc linker, 5-FAM label; FIG. 14N (KEKAKA; cyclised or stapled) | 3.0 | 24.6 | 73.2 | 95.1 |  |  |  |  |  |  |
| 5-FAM-CPMB-0035: CPS-003 cyclic peptide scaffold, Gal-5 GalNAc linker, 5-FAM label; FIG. 14L (KEKGKG; D-residues; cyclised or stapled) | 11.1 | 63.2 | 95.2 | 99.5 | 5.7 | relatively higher binding ability |  |  |  |  |
| 5-FAM-CPMB-0011: CPS-001 cyclic peptide scaffold, Gal-1 GalNAc linker, 5-FAM label; FIG. 14A (KEKGKG; cyclised or stapled) | 3.0 | 20.1 | 67.7 | 94.2 |  |  |  |  |  |  |
| 5-FAM-CPMB-0034: CPS-003 cyclic peptide scaffold, Gal-4 GalNAc linker, 5-FAM label; FIG. 14K (KEKGKG; D-residues; cyclised or stapled) | 2.0 | 25.6 | 73.6 | 95.6 |  |  |  |  |  |  |
| 5-FAM-CPMB-0014: CPS-001 cyclic peptide scaffold, Gal-4 GalNAc linker, 5-FAM label; FIG. 14D (KEKGKG; cyclised or stapled) | 2.3 | 24.4 | 71.0 | 96.5 |  |  |  |  |  |  |
| 5-FAM-CPMB-0012: CPS-001 cyclic peptide scaffold, Gal-2 GalNAc linker, 5-FAM label; FIG. 14B (KEKGKG; not fully specified; cyclised or stapled) | 1.2 | 19.6 | 74.2 | 95.9 |  |  |  |  |  |  |
| 5-FAM-CPMB-0015: CPS-001 cyclic peptide scaffold, Gal-5 GalNAc linker, 5-FAM label; FIG. 14E (KEKGKG; cyclised or stapled) | 16.3 | 36.3 | 89.6 | 99 |  |  |  |  |  |  |
| 5-FAM-CPMB-0311: CPS-031 cyclic peptide scaffold, Gal-1 GalNAc linker, 5-FAM label; FIG. 14M (KEKAKA; cyclised or stapled) | 3.1 | 20.8 | 68.8 | 93.3 |  |  |  |  |  |  |
| 5-FAM-CPMB-0033: CPS-003 cyclic peptide scaffold, Gal-3 GalNAc linker, 5-FAM label; FIG. 14J (KEKGKG; D-residues; cyclised or stapled) | 5.3 | 34.5 | 82.9 | 98.2 |  |  |  |  |  |  |
| 5-FAM-CPMB-0031: CPS-003 cyclic peptide scaffold, Gal-1 GalNAc linker, 5-FAM label; FIG. 14I (KEKGKG; D-residues; cyclised or stapled) | 6.0 | 44.2 | 87.8 | 98.6 |  |  |  |  |  |  |
| 5-FAM-CPMB-0031-Ac: negative control, cyclic peptide w/o tri-GalNAc; CPS-003, Gal-1; FIG. 14R (KEKGKG; D-residues; cyclised or stapled) [reference compound] | 0.1 | 0.1 | 0.2 | 0.4 |  |  |  |  |  |  |
| B1 |  |  |  |  |  |  | 73.6 | 2 | 95.6 | 25.6 |
| B2 |  |  |  |  |  |  | 83.1 | 1.6 | 98.2 | 30 |
| B3 |  |  |  |  |  |  | 88.7 | 6.8 | 98.8 | 46.1 |
| B4 |  |  |  |  |  |  | 82.9 | 5.3 | 98.2 | 34.5 |
| B5 |  |  |  |  |  |  | 87.8 | 6 | 98.6 | 44.2 |
